Source: patent US5639887A, “MDR reversal agents” (priority 1995, dated 1997)
In brackets after ≈: the same amount, converted by molar mass.

Experiments:
[1] = tested on: bisantrene-resistant human ovarian carcinoma cells S1-B1-20 (OVCAR-3 subclone); experiment: Screening assay for reversal agents: Difference Score with/without 20 μM bisantrene; format: cell-based; conditions: alone vs with 20 μM bisantrene, 3 days, difference in % cell survival; for Difference Score at 1 microM: test agent 1 microM; for Difference Score at 10 microM: test agent 10 microM; for Difference Score at 20 microM: test agent 20 microM
Description: Such cells are sorted by a fluorescent activated cell sorter (FACS; Becton Dickinson Model 440).
Cells, prepared by trypsinization, are plated at 20,000 cells/well in media with and without bisantrene. Then, test agents at varying concentrations are added to the cells. […] Completed plates are incubated for 3 days at 37° C. in a moisturized 7% CO2 atmosphere. […] Dye content/well is read at 540 nm in a microtiter reader. Values are electronically processed, % cell survival compared to untreated cells is computed, and the results are expressed as the difference between these values. Experiments are run in the presence of the test agent alone and the test agent in combination with 20 μM bisantrene. The Difference Score between those two experiments is reported below for 3 different concentrations of test agent.

[2] = tested on: vincristine resistant murine leukemia P388/VCR; experiment: In vivo evaluation of MDR-1 reversal agents against vincristine resistant murine leukemia P388/VCR implanted IP in CDF1 mice; conditions: for % ILS: vs vincristine alone
Description: Tumor cell ascites are harvested 5-7 days later. For drug testing, groups of 10-15 CDF1 mice (DBA/2×Balb/cF1 hybrids; Charles River Laboratories, Inc) are injected IP with 0.5 ml of diluted ascitic fluid containing 1×10^6 viable P388/VCR tumor cells. […] Drugs are administered once daily, by the IP, intravenous (IV) or oral route, starting one day after tumor implantation and using a variety of treatment schedules. Mice are weighed periodically, survival is recorded for 30 days post tumor implantation, and Mean survival times are calculated for all groups of mice. Statistical analysis of Mean survival times is carried out using the Student t-test.

[3] = tested on: human epidermoid carcinoma KB/8.5; experiment: In vivo evaluation of MDR-1 reversal agents against human epidermoid carcinoma KB/8.5 implanted SC in athymic nude mice; design: species or system human (tumor in athymic nude mice)
Description: The multiple drug resistant human epidermoid carcinoma KB/8.5 is propagated in medium containing colchicine (10 nanograms/ml) to maintain drug resistance. Colchicine is removed from the medium, for two cell passages, prior to subcutaneous (SC) implant of 8×10^6 KB/8.5 tumor cells into athymic "nude" mice (Harlan Sprague Dawley). […] Individual mouse tumor mass and mean tumor mass for each treatment group is determined on Day +14 and Day +21 of the test period. For each treatment group, the Relative Tumor Growth, RTG, is calculated as follows: [formula]
Statistical analysis of Log Relative Tumor Growth is carried out using the Student t-test. Transformation of the data from absolute mean tumor mass (mgs tumor mass) to Log Relative Tumor Growth prior to statistical analysis has two beneficial effects:
1) it corrects the data for differences in mean tumor mass of the different treatment groups at the start of the test period (Day 0); and
2) the Log transformation of the data more adequately reflects the exponential growth pattern of the SC tumors and makes the use of the Student t-test more appropriate.

[4] = Limit of solubility of bisantrene; format: physicochemical; conditions: cell culture medium; cell culture maintenance
[5] = tested on: multiple drug resistance tumor cells; conditions: background, resensitizing agents for treatment of cancer; cited from earlier work
[6] = vincristine 0.2 + compound 25 mg/kg, days 1-5, IP
[7] = vincristine 0.2 + compound 50 mg/kg, days 1-5, IP
[8] = vincristine 0.4 + compound 25 mg/kg, days 1-3,6,7, IV
[9] = vincristine 0.4 + compound 50 mg/kg, days 1-3,6,7, IV
[10] = vincristine 0.6 + compound 6.3 mg/kg, days 1,5,9, IP
[11] = vincristine 0.6 + compound 25 mg/kg, days 1,2, IV
[12] = vincristine 0.6 + compound 25 mg/kg, days 1,5,9, IP
[13] = vincristine 0.6 + compound 50 mg/kg, days 1,2, IV
[14] = vincristine 0.8 + compound 25 mg/kg, days 1,2, IV
[15] = doxorubicin 8 mg/kg IV + compound 25 mg/kg/dose SC at -2 h and +2 h
[16] = doxorubicin 8 mg/kg IV + compound 150 mg/kg/dose SC at -2 h and +2 h
[17] = doxorubicin 8 mg/kg IV + compound 200 mg/kg/dose SC at -2 h and +2 h
[18] = doxorubicin 8 mg/kg IV + compound […] SC at -2 h and +2 h
[19] = vincristine 0.2 + compound 6.3 mg/kg, days 1-7, IP
[20] = vincristine 0.2 + compound 25 mg/kg, days 1-7, IP
[21] = doxorubicin 8 mg/kg IV + compound 75 mg/kg/dose SC at -2 h and +2 h
[22] = doxorubicin 8 mg/kg IV + compound 200 mg/kg/dose SC x2

2-[6-Cyano-6(3,4-dimethoxyphenyl)-6-[(4-methylphenyl)-thio]hexyl]-1,2,3,4-tetrahydo-5-methoxy-7-isoquinoline trifluoromethanesulfonic acid [Example 102]
Difference Score at 1 microM [1]: 30 | Difference Score at 10 microM [1]: 82 | Difference Score at 20 microM [1]: 82

2-[7-(4-Fluorophenyl)-7-[(4-methylphenyl)thio]heptyl]-1,2,3,4-tetrahydro-6,7-isoquinoline [Example 95]
Difference Score at 1 microM [1]: 28 | Difference Score at 10 microM [1]: 71 | Difference Score at 20 microM [1]: 57

COc1ccc(C(C#N)(CCCCCN2CCc3cc(OC)c(OC)cc3C2)Sc2ccc(C)cc2)cc1OC (stereo not drawn) [Example 17, α-(3,4-Dimethoxyphenyl)-3,4-dihydro-6,7-dimethoxy-α-[(4-methylphenyl)thio]-2(1H)-isoquinolineheptanenitrile]
MST [2, 6]: 16.8 days | MST [2, 7]: 16.1 days | MST [2, 8]: 13.3 days | MST [2, 9]: 13.4 days | MST [2, 10]: 12.9 days | MST [2, 11]: 10.1 days | MST [2, 12]: 15.8 days | MST [2, 13]: 11.1 days | MST [2, 14]: 11.1 days | % ILS [2, 6]: +22% | % ILS [2, 7]: +17% | % ILS [2, 8]: +17% | % ILS [2, 9]: +18% | % ILS [2, 10]: +12% | % ILS [2, 11]: +5% | % ILS [2, 12]: +38% | % ILS [2, 13]: +16% | % ILS [2, 14]: +13% | Relative Tumor Growth Day 21 [3, 15]: 9.55 | Relative Tumor Growth Day 21 [3, 16]: 3.35 | Relative Tumor Growth Day 21 [3, 17]: 5.30 | Relative Tumor Growth Day 21 [3, 18]: 8.58

COc1ccc(C(C#N)(CCCCCN2Cc3cc(OC)c(OC)cc3C2)Sc2ccc(C)cc2)cc1OC (stereo not drawn) [Example 26, α-(3,4-Dimethoxyphenyl)-1,3-dihydro-5,6-dimethoxy-α-[(4-methylphenyl)thio]-2H-isoindole-2-heptanenitrile]
MST [2, 19]: 13.8 days | MST [2, 20]: 15.8 days | % ILS [2, 19]: +23% | % ILS [2, 20]: +41% | Relative Tumor Growth Day 21 [3, 21]: 3.49 | Relative Tumor Growth Day 14 [3, 16]: Toxic | Relative Tumor Growth Day 21 [3, 16]: Toxic | Relative Tumor Growth Day 14 [3, 17]: Toxic | Relative Tumor Growth Day 21 [3, 17]: Toxic

COc1ccc(C(CCCCCN2CCc3cc(OC)c(OC)cc3C2)Sc2ccc(C)cc2)cc1OC (stereo not drawn) [Example 41, 2-[6-(3,4-Dimethoxyphenvl]-6-[(4-methylphenyl)thio]-hexyl]-1,2,3,4-tetrahydro-6,7-dimethoxyisoquinoline]
MST [2, 19]: 14.1 days | % ILS [2, 19]: +13% | Relative Tumor Growth Day 21 [3, 15]: 6.15 | Relative Tumor Growth Day 21 [3, 21]: 8.54 | Relative Tumor Growth Day 21 [3, 17]: 4.57 | toxicity remark (tox), Day 14 [3, 22]: tox | toxicity remark (tox), Day 21 [3, 22]: tox | Relative Tumor Growth Day 21 [3, 18]: 7.27

COc1ccc2c(c1)CCN(CCCCCC(Sc1ccc(C)cc1)c1ccc(OC)c(OC)c1)C2 (stereo not drawn) [Example 46, 2-[6-(3,4-Dimethoxyphenyl)-6-[(4-methylphenyl)thio]-hexyl]-1,2,3,4-tetrahydro-6-methoxyisoquinoline]
MST [2, 20]: 16.7 days | % ILS [2, 20]: +36% | Relative Tumor Growth Day 21 [3, 15]: 9.65 | Relative Tumor Growth Day 21 ([3]; doxorubicin 8 mg/kg IV + compound 50 mg/kg/dose SC at -2 h and +2 h): 8.83 | Relative Tumor Growth Day 21 [3, 21]: 10.23 | Relative Tumor Growth Day 21 ([3]; doxorubicin 8 mg/kg IV + compound 100 mg/kg/dose SC at -2 h and +2 h): 10.91 | Relative Tumor Growth Day 21 [3, 17]: 8.99

COc1ccc(C(C#N)(CCCCCN2Cc3cc(OC)c(OC)cc3C2)SC2CCCCC2)cc1OC (stereo not drawn) [Example 86, α-(Cyclohexylthio)-α-(3,4-dimethoxyphenyl)-1,3-dihydro5,6-dimethoxy-2(1H)-isoindoleheptane nitrile]
Difference Score at 1 microM [1]: 83 | Difference Score at 10 microM [1]: 77 | Difference Score at 20 microM [1]: 29

COc1ccc(C(C#N)(CCCCCN2Cc3cc(OC)c(OC)cc3C2)SC2CCCCC2)cc1OC.Cl (stereo not drawn) [Example 120, α-(Cyclohexylthio)-α-(3,4-dimethoxyphenyl)-1,3-dihydro 5,6-dimethoxy-2(1H)-isoindoleheptanenitrile hydrochloride]
Difference Score at 1 microM [1]: 83 | Difference Score at 10 microM [1]: 59 | Difference Score at 20 microM [1]: 1

C(=N\NC1=NCCN1)/c1c2ccccc2c(/C=N/NC2=NCCN2)c2ccccc12 [bisantrene]
solubility [4]: 20 µM (≈ 7.97 µg/mL)

CN1CCN(CCCN2c3ccccc3Sc3ccc(C(F)(F)F)cc32)CC1 [trifluoroperizine]
toxic side effects in the clinic [5]: limited by toxic side effects
